Results on 23 molecules are retold here after patent publication US20120157452A1, “1H-PYRAZOLO[3,4-B] PYRIDINE COMPOUNDS FOR INHIBITING RAF KINASE” (GENENTECH, INC., priority 2009, published 2012).

The structures appear in SMILES notation. Bounds are passed on as bounds.

As usually defined, the IC50 is the point on the concentration scale where inhibition reaches its midpoint. High values mean a need for much substance, low ones inhibition by little substance.

One experiment concerns the target T1, V600E full-length B-Raf (Homo sapiens, UniProt P15056, V600E).
T1 construct: made in house; host or cells: Sf9 insect cells (baculovirus)
The experiment is described as follows: B-Raf IC50 assay: incorporation of radio labeled phosphate from [γ-33P]ATP into FSBA-modified wild-type MEK. The experiment is classed as biochemical. An excerpt:
Determining the activity of Raf in the sample is possible by a number of direct and indirect detection methods (US 2004/0082014). Activity of human recombinant B-Raf protein may be assessed in vitro by assay of the incorporation of radio labeled phosphate to recombinant MAP kinase (MEK), a known physiologic substrate of B-Raf, according to US 2004/0127496 and WO 03/022840. The activity/inhibition of V600E full-length B-Raf was estimated by measuring the incorporation of radio labeled phosphate from [γ-^33]ATP into FSBA-modified wild-type MEK (see Biological Example 1).
Activity of human recombinant B-Raf protein may be assessed in vitro by assay of the incorporation of radio labeled phosphate to recombinant MAP kinase (MEK), a known physiologic substrate of B-Raf, according to US 2004/0127496 and WO 03/022840. Catalytically active human recombinant B-Raf protein is obtained by purification from sf9 insect cells infected with a human B-Raf recombinant baculovirus expression vector.
The activity/inhibition of V600E full-length B-Raf was estimated by measuring the incorporation of radio labeled phosphate from [γ-^33]ATP into FSBA-modified wild-type MEK. The 30-μL, assay mixtures contained 25 mM Na Pipes, pH 7.2, 100 mM KCl, 10 mM MgCl2, 5 mM β-glycerophosphate, 100 μM Na Vanadate, 4 μM ATP, 500 nCi [γ-^33P]ATP, 1 μM FSBA-MEK and 20 nM V600E full-length B-Raf. Incubations were carried out at 22° C. in a Costar 3365 plate (Corning). Prior to the assay, the B-Raf and FSBA-MEK were preincubated together in assay buffer at 1.5× (20 μL of 30 nM and 1.5 μM, respectively) for 15 minutes, and the assay was initiated by the addition of 10 μL of […]. Following the 60-minute incubation, the assay mixtures were quenched by the addition of 100 μL of 25% TCA, the plate was mixed on a rotary shaker for 1 minute, and the product was captured on a Perkin-Elmer GF/B filter plate using a Tomtec Mach III Harvester. After sealing the bottom of the plate, 35 μL of Bio-Safe II (Research Products International) scintillation cocktail were added to each well and the plate was top-sealed and counted in a Topcount NXT (Packard).

The subject of the next experiment is LOX xenografts. Kind of experiment: Tumor Growth Inhibition (LOX) in nude mice with subcutaneous LOX xenografts. The experiment is classed as in vivo. The note with it: female nude mice, subcutaneous LOX xenograft, 30 mg/kg PO on days 1, 2, 3 and 4. Here is the method:
Female nude mice were implanted subcutaneously on the right flank with approximately 3.5×10^6 LOX cells in 100 μL PBS. Five to seven days later, tumors were measured and mice were randomized into groups of six with average tumor volume in each group of approximately 200 mm^3. Examples 30 and 42 were dissolved in 80% PEG400/20% ethanol before dosing, and administered PO at a volume of 5 mL/kg. Dosing was vehicle alone on days 1, 2, 3 and 4; and Examples 30 and 42 at 30 mg/kg on days 1, 2, 3 and 4 Animal weights and tumor volumes were measured using electronic calipers on […]. Tumor volume was calculated using the formula: volume=(width^2×length)/2. Each Example was run in a separate study with its own vehicle comparison.

Where [1] appears, read: 4 μM ATP, 60-minute incubation, representative data of multiple tests.

T1 sequence (P15056 whole entry V600E): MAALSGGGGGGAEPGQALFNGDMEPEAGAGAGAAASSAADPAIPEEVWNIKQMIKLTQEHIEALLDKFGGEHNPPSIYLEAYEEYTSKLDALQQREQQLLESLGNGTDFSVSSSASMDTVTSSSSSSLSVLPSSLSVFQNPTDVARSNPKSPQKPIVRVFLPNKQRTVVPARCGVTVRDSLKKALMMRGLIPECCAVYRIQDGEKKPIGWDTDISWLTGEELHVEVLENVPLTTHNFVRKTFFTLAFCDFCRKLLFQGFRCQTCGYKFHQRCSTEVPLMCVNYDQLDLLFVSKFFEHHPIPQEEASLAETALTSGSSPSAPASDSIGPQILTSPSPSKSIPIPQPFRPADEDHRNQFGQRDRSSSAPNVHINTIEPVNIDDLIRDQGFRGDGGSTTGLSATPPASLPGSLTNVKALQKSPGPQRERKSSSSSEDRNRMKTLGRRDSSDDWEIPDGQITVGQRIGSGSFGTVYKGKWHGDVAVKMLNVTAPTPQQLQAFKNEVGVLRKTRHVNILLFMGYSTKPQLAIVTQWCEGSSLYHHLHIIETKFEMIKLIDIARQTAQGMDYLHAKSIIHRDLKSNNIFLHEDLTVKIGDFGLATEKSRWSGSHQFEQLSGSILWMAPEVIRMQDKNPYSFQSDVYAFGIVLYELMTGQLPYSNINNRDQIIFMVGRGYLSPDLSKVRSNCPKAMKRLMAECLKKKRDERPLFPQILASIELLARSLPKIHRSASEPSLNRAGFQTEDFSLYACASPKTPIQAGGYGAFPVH

The molecule `COc1n[nH]c2ncc(NC(=O)c3c(Cl)ccc(OCc4ccc(Cl)cc4)c3F)cc12` [Example 30, 6-chloro-3-(4-chlorobenzyloxy)-2-fluoro-N-(3-methoxy-1H-pyrazolo[3,4-b]pyridin-5-yl)benzamide] gave a half-maximal inhibitory concentration (IC50) on V600E full-length B-Raf (setting [1]) of 0.74 nM. At V600E full-length B-Raf (bound stated), this molecule came in with a 50% inhibitory concentration (IC50) of under 100 nM. Moreover, in the experiment on LOX xenografts, the “Tumor Volume (mm^3) Day 1” value was determined as 221.68 mm^3, the “Tumor Volume (mm^3) Day 3” value came out at 204.49 mm^3 and the “Tumor Volume (mm^3) Day 5” value was 168.94 mm^3.
For `COc1n[nH]c2ncc(NC(=O)c3c(Cl)ccc(OCc4ccc(C(F)(F)F)cn4)c3F)cc12` [Example 42, 6-chloro-2-fluoro-N-(3-methoxy-1H-pyrazolo[3,4-b]pyridin-5-yl)-3-((5-(trifluoromethyl)pyridin-2-yl)methoxy)benzamide], in that order: 1.76 nM, under 100 nM, 191.22 mm^3, 214.61 mm^3 and 161.55 mm^3.
For `COc1n[nH]c2ncc(NC(=O)c3c(Cl)ccc(OCc4ccn(C)n4)c3F)cc12` [Example 58, 6-chloro-2-fluoro-N-(3-methoxy-1H-pyrazolo[3,4-b]pyridin-5-yl)-3-((1-methyl-1H-pyrazolo-3-yl)methoxy)benzamide], the half-maximal inhibitory concentration (IC50) was 37.1 nM against V600E full-length B-Raf (setting [1]) and under 100 nM against V600E full-length B-Raf (bound stated).
For `COc1n[nH]c2ncc(NC(=O)c3c(Cl)ccc(OCc4csc(C)n4)c3F)cc12` [Example 59, 6-chloro-2-fluoro-N-(3-methoxy-1H-pyrazolo[3,4-b]pyridin-5-yl)-3-((2-methylthiazol-4-yl)methoxy)benzamide], in that order: 10.6 nM and under 100 nM.
With `COc1n[nH]c2ncc(NC(=O)c3c(Cl)ccc(OCc4ccccc4Cl)c3F)cc12` [Example 60, 6-chloro-3-(2-chlorobenzyloxy)-2-fluoro-N-(3-methoxy-1H-pyrazolo[3,4-b]pyridin-5-yl)benzamide], the IC50 against V600E full-length B-Raf (setting [1]) was 1.28 nM; at V600E full-length B-Raf (bound stated) it was under 100 nM.
On the same counts, the results for `COc1n[nH]c2ncc(NC(=O)c3c(Cl)ccc(OCc4cc(C)on4)c3F)cc12` [Example 61, 6-chloro-2-fluoro-N-(3-methoxy-1H-pyrazolo[3,4-b]pyridin-5-yl)-3-((5-methylisoxazol-3-yl)methoxy)benzamide] are 80.1 nM and under 100 nM.
For `COc1n[nH]c2ncc(NC(=O)c3c(Cl)ccc(OCc4ccc(F)cc4F)c3F)cc12` [Example 62, 6-chloro-3-(2,4-difluorobenzyloxy)-2-fluoro-N-(3-methoxy-1H-pyrazolo[3,4-b]pyridin-5-yl)benzamide], in that order: 1.45 nM and under 100 nM.
On the same counts, the results for `COc1n[nH]c2ncc(NC(=O)c3c(Cl)ccc(OCc4ccc5c(c4)OCO5)c3F)cc12` [Example 63, 3-(benzo[d][1,3]dioxol-5-ylmethoxy)-6-chloro-2-fluoro-N-(3-methoxy-1H-pyrazolo[3,4-b]pyridin-5-yl)benzamide] are 1.71 nM and under 100 nM.
With `COc1n[nH]c2ncc(NC(=O)c3c(Cl)ccc(OCc4cccc(CN5CCOCC5)c4)c3F)cc12` [Example 64, 6-chloro-2-fluoro-N-(3-methoxy-1H-pyrazolo[3,4-b]pyridin-5-yl)-3-(3-(morpholinomethyl)benzyloxy)benzamide], the IC50 at V600E full-length B-Raf (setting [1]) is 9.29 nM; on V600E full-length B-Raf (bound stated) it was under 100 nM.
For `COc1n[nH]c2ncc(NC(=O)c3c(Cl)ccc(OCc4ccc5c(c4)CCO5)c3F)cc12` [Example 65], in that order: 0.63 nM and under 100 nM.
On to `COc1n[nH]c2ncc(NC(=O)c3c(Cl)ccc(OCc4ccc(Cl)cc4F)c3F)cc12` [Example 66, 6-chloro-3-(4-chloro-2-fluorobenzyloxy)-2-fluoro-N-(3-methoxy-1H-pyrazolo[3,4-b]pyridin-5-yl)benzamide], for which the half-maximal inhibitory concentration (IC50) against V600E full-length B-Raf (setting [1]) was 1.5 nM; against V600E full-length B-Raf (bound stated), under 100 nM.
For `COc1n[nH]c2ncc(NC(=O)c3c(Cl)ccc(OC(C)c4ccccc4)c3F)cc12` (stereo not drawn) [Example 67, 6-chloro-2-fluoro-N-(3-methoxy-1H-pyrazolo[3,4-b]pyridin-5-yl)-3-(1-phenylethoxy)benzamide], in that order: 61 nM and under 100 nM.
`COc1n[nH]c2ncc(NC(=O)c3c(Cl)ccc(OCc4cncnc4)c3F)cc12` [Example 68, 6-chloro-2-fluoro-N-(3-methoxy-1H-pyrazolo[3,4-b]pyridin-5-yl)-3-(pyrimidin-5-ylmethoxy)benzamide] displayed an IC50 on V600E full-length B-Raf (setting [1]) of 658 nM.
Consider `COc1n[nH]c2ncc(NC(=O)c3c(Cl)ccc(OCc4ccc5ncccc5c4)c3F)cc12` [Example 69, 6-chloro-2-fluoro-N-(3-methoxy-1H-pyrazolo[3,4-b]pyridin-5-yl)-3-(quinolin-6-ylmethoxy)benzamide], for which the IC50 was 1.66 nM against V600E full-length B-Raf (setting [1]) and under 100 nM on V600E full-length B-Raf (bound stated).
For `COc1n[nH]c2ncc(NC(=O)c3c(Cl)ccc(OCc4cnn(C)c4)c3F)cc12` [Example 70, 6-chloro-2-fluoro-N-(3-methoxy-1H-pyrazolo[3,4-b]pyridin-5-yl)-3-((1-methyl-1H-pyrazol-4-yl)methoxy)benzamide], in that order: 25.7 nM and under 100 nM.
On the same counts, the results for `COc1n[nH]c2ncc(NC(=O)c3c(C)ccc(OCc4ccc(F)cc4)c3F)cc12` [Example 71, 2-fluoro-3-(4-fluorobenzyloxy)-N-(3-methoxy-1H-pyrazolo[3,4-b]pyridin-5-yl)-6-methylbenzamide] are 0.66 nM and under 100 nM.
For the molecule `COc1n[nH]c2ncc(NC(=O)c3c(C)ccc(OCc4ccc(Cl)cc4)c3F)cc12` [Example 72, 3-(4-chlorobenzyloxy)-2-fluoro-N-(3-methoxy-1H-pyrazolo[3,4-b]pyridin-5-yl)-6-methylbenzamide], the IC50 against V600E full-length B-Raf (setting [1]) was 0.4 nM; against V600E full-length B-Raf (bound stated) it was under 100 nM.
For the molecule `COc1n[nH]c2ncc(NC(=O)c3c(C)ccc(OCc4ccc(C(F)(F)F)cc4)c3F)cc12` [Example 73, 2-fluoro-N-(3-methoxy-1H-pyrazolo[3,4-b]pyridin-5-yl)-6-methyl-3-(4-(trifluoromethyl)benzyloxy)benzamide], the IC50 at V600E full-length B-Raf (setting [1]) is 0.86 nM; against V600E full-length B-Raf (bound stated), under 100 nM.
For `COc1n[nH]c2ncc(NC(=O)c3c(C)ccc(OCc4ccc(Cl)cn4)c3F)cc12` [Example 74, 3-((5-chloropyridin-2-yl)methoxy)-2-fluoro-N-(3-methoxy-1H-pyrazolo[3,4-b]pyridin-5-yl)-6-methylbenzamide], in that order: 0.51 nM and under 100 nM.
With `COc1n[nH]c2ncc(NC(=O)c3c(Cl)ccc(OCc4ccc(CN5CCOCC5)cc4)c3F)cc12` [Example 75, 6-chloro-2-fluoro-N-(3-methoxy-1H-pyrazolo[3,4-b]pyridin-5-yl)-3-(4-(morpholinomethyl)benzyloxy)benzamide], the IC50 was 139 nM at V600E full-length B-Raf (setting [1]) and under 500 nM against V600E full-length B-Raf (bound stated).
On the same counts, the results for `COc1n[nH]c2ncc(NC(=O)c3c(Cl)ccc(OCc4cccc5[nH]ccc45)c3F)cc12` [Example 76, 3-((1H-indol-4-yl)methoxy)-6-chloro-2-fluoro-N-(3-methoxy-1H-pyrazolo[3,4-b]pyridin-5-yl)benzamide] are 13 nM and under 100 nM.
On to `COc1n[nH]c2ncc(NC(=O)c3c(Cl)ccc(OCc4ccc(C5CC5)cc4)c3F)cc12` [Example 77, 6-chloro-3-(4-cyclo-propylbenzyloxy)-2-fluoro-N-(3-methoxy-1H-pyrazolo[3,4-b]pyridin-5-yl)benzamide], for which the IC50 at V600E full-length B-Raf (setting [1]) was 0.56 nM; against V600E full-length B-Raf (bound stated), under 100 nM.
On the same counts, the results for `CC(=O)Nc1n[nH]c2ncc(NC(=O)c3c(Cl)ccc(OCc4ccccc4)c3F)cc12` [Example 78, N-(3-acetamido-1H-pyrazolo[3,4-b]pyridin-5-yl)-3-(benzyloxy)-6-chloro-2-fluorobenzamide] are 5.19 nM and under 100 nM.
